Results: patent US11091501B2, “Heterocyclic compounds as RSV inhibitors” (Enanta Pharmaceuticals, Inc., priority 2017, dated 2021)
Where two headings read alike, the source gives them in different places.

System: Human RSV-A (“Long” strain)
Test: RSV in vitro cytoprotection assay (CPE, ATPlite) in HEp-2 cells
Type: cell-based
Conditions: human respiratory syncytial virus
Procedure, shortened: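 HEp-2 cells (8,000/well) given 2-fold serial compound dilutions in duplicate, then infected with sucrose-stabilised RSV-A Long stock. After 4 days, cell viability read by ATPlite luminescence, with a parallel uninfected plate for cytotoxicity. EC50 binned A<0.01 μM, B 0.01-0.05 μM, C>0.05 μM.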

SMILES	EC50 (96 h, HEp-2 cells, 4-day incubation, ATPlite readout, read-out: Human RSV-A (“Long” strain) EC50) [nM]	EC50 (HEp-2, control compound of the RSV assay, read-out: EC50) [nM]
Cc1ccc(C(=O)Nc2ccc(C(=O)N3CCc4c(sc(NC(=O)c5ccccc5F)c4F)-c4ccccc43)cc2)c(N2CC3(CCOCC3)C2)n1 [Example 311]	10 to 50	–
O=C(Nc1ccccc1F)N[C@H]1N=C(c2ccccc2)c2ccccc2NC1=O [RSV-604, reference compound]	–	~2400
